ChEMBL document CHEMBL1909046, “DrugMatrix in vitro pharmacology data”

Tests used:
[1] = target: 5-hydroxytryptamine receptor 1B (Rattus norvegicus, UniProt P28564); assay type: cell membranes, Wistar, Cerebral cortex, Membrane; also: in other assays of this panel Not Active means under 50% inhibition at 10 µM
[2] = target: T1, Angiotensin-converting enzyme (Oryctolagus cuniculus, UniProt P12822); experiment: biochemical; assay type: tissue-based, Lung;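 also: enzymatic inhibition of angiotensin-converting enzyme measured with FAPGG as the substrate; in other assays of this panel Not Active means under 50% inhibition at 10 µM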
T1 sequence (P12822 whole entry): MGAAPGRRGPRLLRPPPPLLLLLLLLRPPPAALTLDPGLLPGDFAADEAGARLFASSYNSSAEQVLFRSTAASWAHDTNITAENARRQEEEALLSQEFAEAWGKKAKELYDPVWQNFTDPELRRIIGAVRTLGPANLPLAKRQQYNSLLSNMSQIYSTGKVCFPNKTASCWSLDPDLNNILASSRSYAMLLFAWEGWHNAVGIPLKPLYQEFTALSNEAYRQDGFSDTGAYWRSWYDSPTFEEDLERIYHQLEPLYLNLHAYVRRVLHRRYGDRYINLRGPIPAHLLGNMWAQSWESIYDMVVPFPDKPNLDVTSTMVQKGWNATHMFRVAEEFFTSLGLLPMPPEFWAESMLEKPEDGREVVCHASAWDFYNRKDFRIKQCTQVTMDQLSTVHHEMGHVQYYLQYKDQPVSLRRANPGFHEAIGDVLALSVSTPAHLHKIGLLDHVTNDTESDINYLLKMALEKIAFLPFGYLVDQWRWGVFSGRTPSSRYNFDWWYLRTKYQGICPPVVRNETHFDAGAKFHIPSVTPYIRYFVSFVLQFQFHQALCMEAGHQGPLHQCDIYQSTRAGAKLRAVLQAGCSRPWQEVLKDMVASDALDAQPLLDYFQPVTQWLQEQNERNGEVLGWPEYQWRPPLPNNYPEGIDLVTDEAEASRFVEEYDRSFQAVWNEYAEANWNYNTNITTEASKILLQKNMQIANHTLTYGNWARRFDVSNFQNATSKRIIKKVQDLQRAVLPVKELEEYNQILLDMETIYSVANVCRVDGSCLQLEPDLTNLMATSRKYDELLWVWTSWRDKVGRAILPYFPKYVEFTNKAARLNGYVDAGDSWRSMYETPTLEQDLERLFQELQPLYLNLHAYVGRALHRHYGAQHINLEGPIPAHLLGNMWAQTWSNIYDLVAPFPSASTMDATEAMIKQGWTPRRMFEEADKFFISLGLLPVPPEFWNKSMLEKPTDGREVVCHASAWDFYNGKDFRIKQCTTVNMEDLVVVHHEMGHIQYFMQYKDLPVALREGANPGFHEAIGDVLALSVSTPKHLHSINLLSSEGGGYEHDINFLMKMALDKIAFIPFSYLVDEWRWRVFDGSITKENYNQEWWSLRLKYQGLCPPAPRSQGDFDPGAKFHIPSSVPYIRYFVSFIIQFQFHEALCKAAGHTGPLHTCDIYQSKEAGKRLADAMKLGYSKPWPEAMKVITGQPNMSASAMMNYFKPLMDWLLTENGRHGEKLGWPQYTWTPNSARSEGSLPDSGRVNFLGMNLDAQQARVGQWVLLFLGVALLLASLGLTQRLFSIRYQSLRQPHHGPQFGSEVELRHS

[3] = DRUGMATRIX: GABAA, Muscimol, Central radioligand binding (ligand: [3H] Muscimol); assay type: cell membranes, Rattus norvegicus, Wistar, Brain, Membrane; conditions: Not Active = under 50% inhibition at 10 µM
[4] = target: Platelet-activating factor receptor (Homo sapiens, UniProt P25105); experiment: biochemical; assay type: tissue-based; conditions: platelet; also: in other assays of this panel Not Active means under 50% inhibition at 10 µM
Platelet-activating factor receptor, sequence (P25105 whole entry): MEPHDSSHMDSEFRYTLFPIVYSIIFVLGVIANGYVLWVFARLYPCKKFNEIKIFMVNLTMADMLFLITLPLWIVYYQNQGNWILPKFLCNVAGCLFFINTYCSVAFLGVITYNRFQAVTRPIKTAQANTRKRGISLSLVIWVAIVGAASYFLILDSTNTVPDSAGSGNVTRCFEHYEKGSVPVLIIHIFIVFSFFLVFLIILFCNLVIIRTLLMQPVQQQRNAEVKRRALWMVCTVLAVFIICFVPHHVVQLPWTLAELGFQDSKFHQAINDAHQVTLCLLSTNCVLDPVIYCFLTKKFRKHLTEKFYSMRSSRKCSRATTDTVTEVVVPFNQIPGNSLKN

[5] = target: Mitogen-activated protein kinase 3 (Homo sapiens, UniProt P27361); experiment: DRUGMATRIX: Protein Serine/Threonine Kinase, ERK1 enzyme inhibition (substrate: Myelin Basic Protein); design: species or system Escherichia coli; conditions: Not Active = under 50% inhibition at 10 µM
Mitogen-activated protein kinase 3, sequence (P27361 whole entry): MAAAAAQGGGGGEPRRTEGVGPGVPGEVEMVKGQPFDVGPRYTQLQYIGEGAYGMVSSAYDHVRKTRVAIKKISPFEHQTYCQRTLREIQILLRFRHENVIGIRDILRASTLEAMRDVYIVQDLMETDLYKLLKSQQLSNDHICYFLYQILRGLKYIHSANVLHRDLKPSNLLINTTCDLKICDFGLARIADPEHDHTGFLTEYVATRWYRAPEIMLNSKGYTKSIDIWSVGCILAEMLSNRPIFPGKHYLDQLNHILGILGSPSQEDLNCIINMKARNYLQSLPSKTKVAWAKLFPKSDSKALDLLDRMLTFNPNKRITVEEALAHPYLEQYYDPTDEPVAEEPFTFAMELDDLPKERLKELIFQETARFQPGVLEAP

[6] = target: T2, Alpha-1B adrenergic receptor (Rattus norvegicus, UniProt P15823); experiment: DRUGMATRIX: Alpha-1B adrenergic receptor radioligand binding (ligand: prazosin); assay type: cell membranes, Wistar, Liver, Membrane; conditions: Not Active = under 50% inhibition at 10 µM
T2 sequence (P15823 whole entry): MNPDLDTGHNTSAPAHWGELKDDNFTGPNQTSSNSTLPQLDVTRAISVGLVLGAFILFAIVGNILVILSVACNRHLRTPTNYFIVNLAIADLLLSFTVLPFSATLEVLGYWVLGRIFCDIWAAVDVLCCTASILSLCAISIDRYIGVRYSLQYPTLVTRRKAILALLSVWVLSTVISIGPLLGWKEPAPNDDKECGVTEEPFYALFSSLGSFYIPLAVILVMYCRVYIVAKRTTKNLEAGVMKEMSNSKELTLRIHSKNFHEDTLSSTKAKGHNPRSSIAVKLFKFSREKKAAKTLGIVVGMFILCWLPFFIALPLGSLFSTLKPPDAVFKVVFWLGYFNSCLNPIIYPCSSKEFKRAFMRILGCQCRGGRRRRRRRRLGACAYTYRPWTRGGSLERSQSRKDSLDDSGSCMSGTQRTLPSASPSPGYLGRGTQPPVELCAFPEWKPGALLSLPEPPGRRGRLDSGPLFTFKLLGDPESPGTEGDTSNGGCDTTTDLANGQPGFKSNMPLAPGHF

[7] = DRUGMATRIX: Phosphodiesterase PDE4 enzyme inhibition (substrate: [3H]cAMP + cAMP); conditions: u-937; Not Active = under 50% inhibition at 10 µM
[8] = target: 5-hydroxytryptamine receptor 4 (Cavia porcellus, UniProt O70528); assay type: cell membranes, Dunkin-Hartley, Striatum, Membrane; also: in other assays of this panel Not Active means under 50% inhibition at 10 µM
5-hydroxytryptamine receptor 4, sequence (O70528 whole entry): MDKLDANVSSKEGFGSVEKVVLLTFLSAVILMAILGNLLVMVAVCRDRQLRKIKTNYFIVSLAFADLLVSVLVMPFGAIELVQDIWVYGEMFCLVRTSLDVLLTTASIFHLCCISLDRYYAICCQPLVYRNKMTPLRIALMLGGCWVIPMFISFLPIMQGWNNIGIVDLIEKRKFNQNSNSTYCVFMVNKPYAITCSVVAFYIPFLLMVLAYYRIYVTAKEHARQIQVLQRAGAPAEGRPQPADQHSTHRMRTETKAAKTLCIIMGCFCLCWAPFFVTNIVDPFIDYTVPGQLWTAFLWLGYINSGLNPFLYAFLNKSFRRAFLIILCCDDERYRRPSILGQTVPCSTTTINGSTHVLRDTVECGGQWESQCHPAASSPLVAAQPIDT

[9] = target: T3, 5-hydroxytryptamine receptor 1A (Rattus norvegicus, UniProt P19327); assay type: cell membranes, CHO-K1, Membrane; conditions: cho-k1; also: in other assays of this panel Not Active means under 50% inhibition at 10 µM
T3 sequence (P19327 whole entry): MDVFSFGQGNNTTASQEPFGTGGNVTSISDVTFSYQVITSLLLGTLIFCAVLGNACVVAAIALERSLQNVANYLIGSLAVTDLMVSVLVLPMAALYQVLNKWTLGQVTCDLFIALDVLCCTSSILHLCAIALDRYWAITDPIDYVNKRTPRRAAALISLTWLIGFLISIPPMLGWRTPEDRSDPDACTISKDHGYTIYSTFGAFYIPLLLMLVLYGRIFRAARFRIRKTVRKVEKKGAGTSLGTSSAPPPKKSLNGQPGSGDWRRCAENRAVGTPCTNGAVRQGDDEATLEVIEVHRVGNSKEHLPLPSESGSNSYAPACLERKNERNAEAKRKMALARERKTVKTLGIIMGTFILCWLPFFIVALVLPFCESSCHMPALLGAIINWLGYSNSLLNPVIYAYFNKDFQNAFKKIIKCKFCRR

[10] = target: Beta-2 adrenergic receptor (Homo sapiens, UniProt P07550); experiment: DRUGMATRIX: Adrenergic beta2 radioligand binding (ligand: [3H] CGP-12177); assay type: cell membranes, Membrane; conditions: cho; Not Active = under 50% inhibition at 10 µM
Beta-2 adrenergic receptor, sequence (P07550 whole entry): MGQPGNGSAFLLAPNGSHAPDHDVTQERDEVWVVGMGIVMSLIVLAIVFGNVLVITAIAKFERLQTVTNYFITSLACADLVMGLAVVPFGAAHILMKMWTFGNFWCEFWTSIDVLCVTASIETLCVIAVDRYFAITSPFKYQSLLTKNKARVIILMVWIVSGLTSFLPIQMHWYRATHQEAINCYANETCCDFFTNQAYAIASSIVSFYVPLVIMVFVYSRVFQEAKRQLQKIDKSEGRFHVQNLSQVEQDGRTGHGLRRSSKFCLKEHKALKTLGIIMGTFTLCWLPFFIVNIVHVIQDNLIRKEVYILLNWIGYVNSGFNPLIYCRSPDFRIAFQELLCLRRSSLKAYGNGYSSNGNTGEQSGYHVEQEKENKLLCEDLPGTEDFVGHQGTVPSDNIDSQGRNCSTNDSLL

5-hydroxytryptamine receptor 1B, sequence (P28564 whole entry): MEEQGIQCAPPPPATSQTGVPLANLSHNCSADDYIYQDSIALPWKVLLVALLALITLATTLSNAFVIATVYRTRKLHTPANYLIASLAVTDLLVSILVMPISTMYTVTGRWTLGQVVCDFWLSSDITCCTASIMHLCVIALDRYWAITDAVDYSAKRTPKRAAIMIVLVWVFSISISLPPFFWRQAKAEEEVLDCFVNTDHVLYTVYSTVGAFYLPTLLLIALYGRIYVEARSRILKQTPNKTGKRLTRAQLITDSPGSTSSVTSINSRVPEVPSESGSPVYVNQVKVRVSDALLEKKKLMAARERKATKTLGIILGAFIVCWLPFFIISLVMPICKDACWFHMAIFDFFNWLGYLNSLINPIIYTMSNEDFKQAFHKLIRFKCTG

Row | Structure (SMILES) | IC50 [1] | IC50 [2] | IC50 [3] | Ki [3] | IC50 [4] | IC50 [5] | IC50 [6] | IC50 [7] | Ki [7] | IC50 [8] | IC50 [9] | IC50 [10] | IC50 ([3]; read-out: IC50) | Ki ([3]; read-out: Ki) | IC50 ([8]; read-out: IC50) | Ki ([8]; read-out: Ki)
1 | C=CC[C@@H]1/C=C(\C)C[C@H](C)C[C@H](OC)[C@H]2O[C@@](O)(C(=O)C(=O)N3CCCC[C@H]3C(=O)O[C@H](/C(C)=C/[C@@H]3CC[C@@H](O)[C@H](OC)C3)[C@H](C)[C@@H](O)CC1=O)[C@H](C)C[C@@H]2OC [TACROLIMUS ANHYDROUS] | Not Active | Not Active | Not Active | Not Active | Not Active | Not Active | Not Active | Not Active | Not Active | Not Active | Not Active | Not Active |  |  |  | 
2 | CC1CN(c2cc3c(cc2F)c(=O)c(C(=O)O)cn3-c2ccc(F)cc2F)CCN1 (stereo unspecified) [TEMAFLOXACIN] | Not Active | Not Active | Not Active | Not Active | Not Active | Not Active | Not Active | Not Active | Not Active | Not Active | Not Active | Not Active |  |  |  | 
3 | CN(C)[C@@H]1C(O)=C(C(N)=O)C(=O)[C@@]2(O)C(O)=C3C(=O)c4c(O)cccc4[C@@](C)(O)[C@H]3C[C@@H]12 [TETRACYCLINE] | Not Active | Not Active | Not Active | Not Active | Not Active | Not Active | Not Active | Not Active | Not Active | Not Active | Not Active | Not Active |  |  |  | 
4 | c1ccc2[nH]c(-c3cscn3)nc2c1 [THIABENDAZOLE] | Not Active | Not Active | Not Active | Not Active | Not Active | Not Active | Not Active | Not Active | Not Active | Not Active | Not Active | Not Active |  |  |  | 
5 | Cc1ccc(C(=O)C(C)CN2CCCCC2)cc1 (stereo unspecified) [TOLPERISONE] | Not Active | Not Active | Not Active | Not Active | Not Active | Not Active | Not Active | Not Active | Not Active | Not Active | Not Active | Not Active |  |  |  | 
6 | NC(CO)(CO)CO [TROMETHAMINE] | Not Active | Not Active | Not Active | Not Active | Not Active | Not Active | Not Active | Not Active | Not Active | Not Active | Not Active | Not Active |  |  |  | 
7 | CN1[C@@H]2CC[C@H]1C[C@@H](OC(=O)c1c[nH]c3ccccc13)C2 [TROPISETRON] | Not Active | Not Active |  |  | Not Active | Not Active | Not Active | Not Active | Not Active |  | Not Active | Not Active | 3020 nM | 2400 nM | 324 nM | 54 nM
8 | COc1cc(C(=O)NC2CCCNC2)cc(OC)c1OC (stereo unspecified) [TROXIPIDE] | Not Active | Not Active | Not Active | Not Active | Not Active | Not Active | Not Active | Not Active | Not Active | Not Active | Not Active | Not Active |  |  |  | 
9 | CC(C)[C@H](N)C(=O)OCCOCn1cnc2c(=O)nc(N)[nH]c21 [VALACYCLOVIR] | Not Active | Not Active | Not Active | Not Active | Not Active | Not Active | Not Active | Not Active | Not Active | Not Active | Not Active | Not Active |  |  |  | 
10 | CN[C@H](CC(C)C)C(=O)N[C@H]1C(=O)N[C@@H](CC(N)=O)C(=O)N[C@H]2C(=O)N[C@H]3C(=O)N[C@H](C(=O)N[C@H](C(=O)O)c4cc(O)cc(O)c4-c4cc3ccc4O)[C@H](O)c3ccc(c(Cl)c3)Oc3cc2cc(c3O[C@@H]2O[C@H](CO)[C@@H](O)[C@H](O)[C@H]2O[C@H]2C[C@](C)(N)[C@H](O)[C@H](C)O2)Oc2ccc(cc2Cl)[C@H]1O [VANCOMYCIN] | Not Active | Not Active | Not Active | Not Active | Not Active | Not Active | Not Active | Not Active | Not Active | Not Active | Not Active | Not Active |  |  |  | 
